In assay [1] the target is N6-adenosine-methyltransferase catalytic subunit (Homo sapiens, UniProt Q86U44).
Description: Binding affinity to METTL3 (unknown origin) assessed as dissociation constant by SPR analysis
Assay [2] concerns the target Histone-lysine N-methyltransferase PRDM9 (Homo sapiens) (UniProt Q9NQV7). Nature of the assay: Inhibition of PRDM9 (unknown origin) at 10 uM relative to control.
The target of assay [3] is T1, METTL3/METTL14 (Homo sapiens, UniProt Q86U44). The experiment in a line: Inhibition of METTL3/METTL14 (unknown origin) by bioluminescence assay. It is filed as protein-complex assay.
For assay [4], the target named is Histone-lysine N-methyltransferase 2B (Homo sapiens) (UniProt Q9UMN6). The experiment in a line: Inhibition of MLL4 (unknown origin) at 10 uM relative to control.
Assay [5] has as its target T1, METTL3/METTL14. Nature of the assay: Inhibition of METTL3/METTL14 (unknown origin) using RNA 5'-GGACUGGACUGGACU-3' as substrate incubated for 2 hrs by LC-MS/MS analysis. It is filed as protein-complex assay.
A further assay concerns Huh-7. The experiment in a line: cells. The conditions noted are these: Homo sapiens, Huh-7, 72 h.
The test system of another assay is MIA PaCa-2. Nature of the assay: cells. Particulars: Homo sapiens, MIA PaCa-2, 72 h.

T1 sequence (Q86U44 whole entry): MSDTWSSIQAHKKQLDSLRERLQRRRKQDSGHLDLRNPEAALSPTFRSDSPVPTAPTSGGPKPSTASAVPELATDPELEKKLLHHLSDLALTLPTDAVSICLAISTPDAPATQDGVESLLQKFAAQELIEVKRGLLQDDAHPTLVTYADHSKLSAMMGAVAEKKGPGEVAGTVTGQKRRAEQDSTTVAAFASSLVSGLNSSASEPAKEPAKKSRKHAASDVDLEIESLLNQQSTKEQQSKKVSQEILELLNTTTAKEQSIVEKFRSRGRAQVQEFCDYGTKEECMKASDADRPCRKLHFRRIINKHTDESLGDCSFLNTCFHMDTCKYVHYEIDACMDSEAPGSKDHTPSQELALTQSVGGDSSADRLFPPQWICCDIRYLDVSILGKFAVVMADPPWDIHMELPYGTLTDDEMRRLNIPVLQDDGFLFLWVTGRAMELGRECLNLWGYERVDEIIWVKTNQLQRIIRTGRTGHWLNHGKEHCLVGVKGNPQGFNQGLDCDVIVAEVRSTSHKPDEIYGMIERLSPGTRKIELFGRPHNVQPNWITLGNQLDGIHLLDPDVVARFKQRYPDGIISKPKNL
T1 sequence (Q9HCE5 whole entry, further chain): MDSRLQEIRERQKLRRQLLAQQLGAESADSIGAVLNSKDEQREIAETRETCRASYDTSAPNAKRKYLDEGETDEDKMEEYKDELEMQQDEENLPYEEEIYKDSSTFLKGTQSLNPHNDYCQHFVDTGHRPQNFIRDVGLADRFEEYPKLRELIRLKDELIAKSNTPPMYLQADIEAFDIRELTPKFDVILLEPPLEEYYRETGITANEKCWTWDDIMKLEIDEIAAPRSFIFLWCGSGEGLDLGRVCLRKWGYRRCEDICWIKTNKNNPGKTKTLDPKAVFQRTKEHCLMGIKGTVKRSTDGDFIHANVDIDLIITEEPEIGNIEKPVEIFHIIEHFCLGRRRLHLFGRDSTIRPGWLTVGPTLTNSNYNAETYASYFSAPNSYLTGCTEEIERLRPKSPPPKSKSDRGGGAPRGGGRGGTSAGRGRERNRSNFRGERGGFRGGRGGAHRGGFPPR
Chain of N6-adenosine-methyltransferase catalytic subunit (Q86U44 whole entry): as the sequence (Q86U44 whole entry) above
Chain of Histone-lysine N-methyltransferase 2B (Homo sapiens) (Q9UMN6 whole entry): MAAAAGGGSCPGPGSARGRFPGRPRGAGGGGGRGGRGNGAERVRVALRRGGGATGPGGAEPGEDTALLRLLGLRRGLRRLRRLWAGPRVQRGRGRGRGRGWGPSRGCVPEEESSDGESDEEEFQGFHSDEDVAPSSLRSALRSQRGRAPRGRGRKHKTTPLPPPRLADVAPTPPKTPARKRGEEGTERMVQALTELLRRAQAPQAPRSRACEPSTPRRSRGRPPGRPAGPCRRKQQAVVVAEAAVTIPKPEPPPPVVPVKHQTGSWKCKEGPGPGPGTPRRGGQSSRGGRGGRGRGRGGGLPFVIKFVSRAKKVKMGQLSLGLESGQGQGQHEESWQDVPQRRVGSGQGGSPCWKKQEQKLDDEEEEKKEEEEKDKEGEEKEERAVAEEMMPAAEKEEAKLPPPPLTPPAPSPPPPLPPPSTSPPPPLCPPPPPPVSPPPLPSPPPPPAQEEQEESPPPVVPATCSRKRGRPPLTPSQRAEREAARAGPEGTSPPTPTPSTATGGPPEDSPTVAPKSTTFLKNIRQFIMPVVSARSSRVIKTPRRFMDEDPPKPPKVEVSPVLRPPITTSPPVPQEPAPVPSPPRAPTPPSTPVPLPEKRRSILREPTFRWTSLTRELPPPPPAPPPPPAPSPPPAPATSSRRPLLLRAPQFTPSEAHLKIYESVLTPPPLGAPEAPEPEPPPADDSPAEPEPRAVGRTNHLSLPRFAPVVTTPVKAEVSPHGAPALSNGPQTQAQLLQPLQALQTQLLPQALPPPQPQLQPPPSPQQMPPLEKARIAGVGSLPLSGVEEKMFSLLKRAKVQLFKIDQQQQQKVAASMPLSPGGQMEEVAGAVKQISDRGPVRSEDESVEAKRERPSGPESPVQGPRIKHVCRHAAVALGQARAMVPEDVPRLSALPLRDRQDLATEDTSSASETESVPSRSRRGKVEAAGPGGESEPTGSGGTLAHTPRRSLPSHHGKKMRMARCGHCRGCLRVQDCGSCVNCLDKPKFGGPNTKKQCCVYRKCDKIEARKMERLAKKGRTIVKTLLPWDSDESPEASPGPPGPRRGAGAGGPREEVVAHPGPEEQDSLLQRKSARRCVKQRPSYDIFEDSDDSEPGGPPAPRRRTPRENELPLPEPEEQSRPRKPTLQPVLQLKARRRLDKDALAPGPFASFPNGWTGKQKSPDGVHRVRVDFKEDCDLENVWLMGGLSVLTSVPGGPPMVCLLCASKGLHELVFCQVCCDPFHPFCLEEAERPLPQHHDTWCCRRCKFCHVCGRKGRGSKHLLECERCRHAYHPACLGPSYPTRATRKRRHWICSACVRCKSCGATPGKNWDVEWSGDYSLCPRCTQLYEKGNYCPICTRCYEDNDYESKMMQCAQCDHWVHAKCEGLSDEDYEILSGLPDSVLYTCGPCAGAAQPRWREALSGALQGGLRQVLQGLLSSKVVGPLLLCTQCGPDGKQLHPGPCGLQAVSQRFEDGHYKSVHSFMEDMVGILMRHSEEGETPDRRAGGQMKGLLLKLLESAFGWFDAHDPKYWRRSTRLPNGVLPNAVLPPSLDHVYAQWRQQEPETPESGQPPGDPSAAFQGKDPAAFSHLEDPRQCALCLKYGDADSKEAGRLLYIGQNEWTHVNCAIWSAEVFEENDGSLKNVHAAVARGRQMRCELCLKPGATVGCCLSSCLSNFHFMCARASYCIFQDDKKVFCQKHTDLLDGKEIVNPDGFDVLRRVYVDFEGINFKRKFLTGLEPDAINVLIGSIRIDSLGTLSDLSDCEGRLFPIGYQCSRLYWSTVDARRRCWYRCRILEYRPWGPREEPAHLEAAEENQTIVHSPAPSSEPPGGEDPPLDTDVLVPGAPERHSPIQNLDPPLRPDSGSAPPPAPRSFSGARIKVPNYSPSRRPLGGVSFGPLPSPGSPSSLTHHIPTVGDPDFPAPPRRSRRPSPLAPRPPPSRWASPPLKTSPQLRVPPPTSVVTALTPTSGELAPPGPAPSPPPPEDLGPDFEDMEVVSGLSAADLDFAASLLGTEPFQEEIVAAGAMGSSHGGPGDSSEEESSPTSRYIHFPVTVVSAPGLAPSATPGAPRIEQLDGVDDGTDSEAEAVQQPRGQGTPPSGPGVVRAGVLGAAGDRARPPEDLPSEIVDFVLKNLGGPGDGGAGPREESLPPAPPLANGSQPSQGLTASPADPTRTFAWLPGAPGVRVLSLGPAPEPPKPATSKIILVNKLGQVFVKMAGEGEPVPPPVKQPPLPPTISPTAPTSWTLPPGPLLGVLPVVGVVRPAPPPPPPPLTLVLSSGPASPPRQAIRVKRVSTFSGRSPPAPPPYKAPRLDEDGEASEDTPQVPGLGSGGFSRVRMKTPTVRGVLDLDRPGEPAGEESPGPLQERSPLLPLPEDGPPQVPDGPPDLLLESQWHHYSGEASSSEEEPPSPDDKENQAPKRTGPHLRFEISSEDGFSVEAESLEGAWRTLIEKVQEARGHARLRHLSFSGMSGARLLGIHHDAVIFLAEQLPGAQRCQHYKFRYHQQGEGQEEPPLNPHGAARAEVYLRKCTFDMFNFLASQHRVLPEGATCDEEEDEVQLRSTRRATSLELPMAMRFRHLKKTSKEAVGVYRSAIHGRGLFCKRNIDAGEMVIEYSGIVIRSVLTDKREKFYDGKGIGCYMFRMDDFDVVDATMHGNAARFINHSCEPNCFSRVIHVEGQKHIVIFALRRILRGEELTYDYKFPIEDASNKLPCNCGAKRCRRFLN
Chain of Histone-lysine N-methyltransferase PRDM9 (Homo sapiens) (Q9NQV7 whole entry): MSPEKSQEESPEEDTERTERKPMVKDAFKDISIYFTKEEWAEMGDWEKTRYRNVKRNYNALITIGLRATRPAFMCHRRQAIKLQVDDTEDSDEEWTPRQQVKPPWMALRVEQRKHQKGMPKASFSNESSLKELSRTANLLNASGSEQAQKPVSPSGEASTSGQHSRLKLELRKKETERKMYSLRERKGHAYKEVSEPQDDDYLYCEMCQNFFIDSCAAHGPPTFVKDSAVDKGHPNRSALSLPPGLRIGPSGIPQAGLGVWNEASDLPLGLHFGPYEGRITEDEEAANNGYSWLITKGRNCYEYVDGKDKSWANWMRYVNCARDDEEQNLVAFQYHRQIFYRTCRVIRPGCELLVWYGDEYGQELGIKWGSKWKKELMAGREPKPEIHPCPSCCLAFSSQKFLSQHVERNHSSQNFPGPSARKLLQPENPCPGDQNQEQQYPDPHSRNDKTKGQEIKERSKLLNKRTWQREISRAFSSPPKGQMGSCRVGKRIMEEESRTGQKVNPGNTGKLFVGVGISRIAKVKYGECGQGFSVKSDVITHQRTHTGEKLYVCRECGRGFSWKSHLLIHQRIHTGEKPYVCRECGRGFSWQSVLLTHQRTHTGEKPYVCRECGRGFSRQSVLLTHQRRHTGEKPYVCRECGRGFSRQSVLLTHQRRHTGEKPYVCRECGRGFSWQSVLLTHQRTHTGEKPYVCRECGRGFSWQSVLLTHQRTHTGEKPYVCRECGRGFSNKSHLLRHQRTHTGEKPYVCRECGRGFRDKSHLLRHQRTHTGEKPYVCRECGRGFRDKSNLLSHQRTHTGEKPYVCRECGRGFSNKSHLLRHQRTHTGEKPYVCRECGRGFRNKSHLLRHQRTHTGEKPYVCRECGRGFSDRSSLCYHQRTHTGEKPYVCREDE
Description for Huh-7: Antiproliferative activity against human Huh-7 cells assessed as reduction in cell viability incubated for 72 hrs by CCK-8 assay
Description for MIA PaCa-2: Antiproliferative activity against human MIA PaCa-2 cells assessed as reduction in cell viability incubated for 72 hrs by CCK-8 assay

Consider `COc1cc2c(cc1Cc1cccc(Cl)c1F)c(=O)c(C(=O)O)cn2[C@H](CO)C(C)C`, for which the Kd (in general, a measure of binding affinity in units of concentration) in assay [1] was determined as 4.79 nM.
With `CC1=NN(c2ccc(C)c(C)c2)C(=O)/C1=N\Nc1cccc(-c2cccc(C(=O)O)c2)c1O` [ELTROMBOPAG], the inhibition (in general, how much of the control response was suppressed) in assay [2] was found to be 30%; in assay [4] it was 29%. Also, it took 3.65 µM to reach half-maximal inhibition against METTL3/METTL14 [3] (IC50).
On to `O=c1c(O)c(-c2ccc(O)c(O)c2)oc2cc(O)cc(O)c12` [QUERCETIN], for which the IC50 (usually the concentration at which inhibition is half-maximal) on METTL3/METTL14 [5] was 2730 nM; in the assay on Huh-7, 100 µM; with MIA PaCa-2, 73.5 µM.

(Values after ChEMBL document CHEMBL5338724, “METTL3 from Target Validation to the First Small-Molecule Inhibitors: A Medicinal Chemistry Journey” (J Med Chem, 2023).)
